Data taken from US20090306098A1 (Cyclacel Limited, priority 2005, published 2009).

Key:
H460 cells [1] = experiment: Calcusyn drug combination (Alamar blue) in H460 cells; assay type: cell-based; details: HDAC inhibitor combined with seliciclib
H460 cells [2] = details: H460, 1×IC50; medium 24 h then seliciclib 24 h; FIG. 6
A549 cells = details: A549 (value in parentheses), combined with seliciclib
Experimental: Experiments were carried out in 96-well plates and the cell lines seeded at a density of 2000/well for A549 and 3000/well for H460. […] Each HDAC inhibitor was then tested in combination with seliciclib using three different treatment regimes: concomitant, seliciclib pre-treatment followed by HDAC inhibitor and HDAC inhibitor pretreatment followed by seliciclib.
The drug concentrations selected were chosen to span the IC50 values for the drugs tested. In the pre-treatment regimes, the first drug was added 2 h after cells were plated, and left for 24 h. Medium was aspirated and replaced with fresh medium containing the second drug, and incubated for 72 h. The two controls for each sequential treatment involved substituting one of the drug treatments with medium.
Seliciclib was tested in combination with the indicated HDAC inhibitors in H460 and A549 cell lines, using three different treatment regimes. […] Data are the average of at least three independent experiments (Table 1).

[3] = HDAC inhibitor 24 h then seliciclib 72 h
[4] = seliciclib 24 h then HDAC inhibitor 72 h

SMILES	Combination Index at ED90, HDAC inhibitor pretreatment (H460 cells [1]; [3])	Combination Index at ED90, Concomitant treatment (H460 cells [1]; both drugs 72 h)	Combination Index at ED90, Seliciclib pretreatment (H460 cells [1]; [4])	overall cell cycle distribution (H460 cells [2])	Combination Index at ED50, HDAC inhibitor pretreatment (H460 cells [1]; [3])	Combination Index at ED75, HDAC inhibitor pretreatment (H460 cells [1]; [3])	Combination Index at ED50, Concomitant treatment (H460 cells [1]; both drugs 72 h)	Combination Index at ED75, Concomitant treatment (H460 cells [1]; both drugs 72 h)	Combination Index at ED50, Seliciclib pretreatment (H460 cells [1]; [4])	Combination Index at ED75, Seliciclib pretreatment (H460 cells [1]; [4])	Combination Index at ED50, HDAC inhibitor pretreatment (A549 cells; [3])	Combination Index at ED75, HDAC inhibitor pretreatment (A549 cells; [3])	Combination Index at ED90, HDAC inhibitor pretreatment (A549 cells; [3])	Combination Index at ED50, Concomitant treatment (A549 cells; both drugs 72 h)	Combination Index at ED75, Concomitant treatment (A549 cells; both drugs 72 h)	Combination Index at ED90, Concomitant treatment (A549 cells; both drugs 72 h)	Combination Index at ED50, Seliciclib pretreatment (A549 cells; [4])	Combination Index at ED75, Seliciclib pretreatment (A549 cells; [4])	Combination Index at ED90, Seliciclib pretreatment (A549 cells; [4])
CCCC(CCC)C(=O)[O-].[Na+] [Sodium valproate, sodium 2-propylpentanoate]	0.84	1.07	0.81																
CC[C@H](CO)Nc1nc(NCc2ccccc2)c2ncn(C(C)C)c2n1 [seliciclib, 2-(1-R-hydroxymethylpropylamino)-6-benzylamino-9-isopropylpurine]				no significant impact															
CCCC(=O)[O-].[Na+] [Butyrate, sodium butyrate]	0.40	0.44	0.57		0.74	0.53	0.82	0.59	0.88	0.68	0.95	0.71	0.60	1.21	0.87	0.64	1.08	0.88	0.75
